Entries after “also recorded” stand apart in the source; their conditions may differ. Like-named read-outs stand apart in the source and are kept apart here.
Tests used:
[1] = target: T1, O-GlcNAcase (Homo sapiens, UniProt O60502)
T1 sequence (O60502 1-916): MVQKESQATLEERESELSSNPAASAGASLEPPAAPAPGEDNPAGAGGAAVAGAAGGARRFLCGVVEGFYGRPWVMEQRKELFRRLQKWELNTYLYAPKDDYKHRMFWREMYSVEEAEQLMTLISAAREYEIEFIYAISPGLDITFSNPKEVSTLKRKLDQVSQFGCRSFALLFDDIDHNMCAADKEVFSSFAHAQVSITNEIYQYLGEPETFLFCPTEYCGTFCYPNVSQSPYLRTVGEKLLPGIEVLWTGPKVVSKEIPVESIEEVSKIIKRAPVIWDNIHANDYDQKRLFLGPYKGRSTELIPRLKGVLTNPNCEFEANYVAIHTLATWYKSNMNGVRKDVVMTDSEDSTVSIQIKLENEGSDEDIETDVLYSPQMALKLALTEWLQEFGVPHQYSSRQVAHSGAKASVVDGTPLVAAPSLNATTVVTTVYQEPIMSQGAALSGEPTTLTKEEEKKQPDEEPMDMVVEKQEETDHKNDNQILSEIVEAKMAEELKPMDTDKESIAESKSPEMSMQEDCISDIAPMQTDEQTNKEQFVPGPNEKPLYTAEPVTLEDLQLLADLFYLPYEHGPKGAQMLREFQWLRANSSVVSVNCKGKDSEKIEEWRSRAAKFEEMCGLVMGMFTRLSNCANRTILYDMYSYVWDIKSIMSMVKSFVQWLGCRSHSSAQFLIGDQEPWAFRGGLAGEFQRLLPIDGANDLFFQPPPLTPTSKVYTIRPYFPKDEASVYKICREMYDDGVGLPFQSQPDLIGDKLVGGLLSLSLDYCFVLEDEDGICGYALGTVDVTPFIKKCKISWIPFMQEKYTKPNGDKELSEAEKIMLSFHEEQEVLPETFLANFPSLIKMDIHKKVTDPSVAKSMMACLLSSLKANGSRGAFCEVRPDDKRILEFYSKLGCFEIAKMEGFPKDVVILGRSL

[2] = tested on: COS-7 cells; experiment: Proliferation rate and morphology of COS-7 cells incubated with inhibitors; assay type: cell-based; conditions: 50 μM inhibitor
Experimental: (§1) COS-7 cells were cultured in DMEM medium (Invitrogen) supplemented with 5-10% FBS (Invitrogen). Aliquots of inhibitors (50 μL of a stock in 95% ethanol) were delivered onto tissue culture plates and the ethanol was evaporated. The cells were incubated at 37° C. for 40 hours at which time they reached approximately 80% confluence. […] COS-7 cells were cultured to 25% confluence in 5% FBS and an aliquot (100 μL) of inhibitor dissolved in media and filter sterilized was added to each plate to yield a final concentration of 50 μM of inhibitor. COS-7 cells (2×10 cm plates) were harvested at the appropriate times by scraping and were pooled by centrifugation (200×g, 10 min). Cells were washed once with PBS, pH 7.0 (10 mL) and pelleted (200×g, 10 min). The cells could be frozen at −80° C. at this point. Control cultures without inhibitors were treated in the same manner.

[3] = tested on: O-GlcNAc-modified proteins in COS-7 cells; experiment: Western blot of O-GlcNAc-modified proteins in COS-7 cells cultured with inhibitors; assay type: cell-based; conditions: 50 μM inhibitor, 40 hours, Western blot
Experimental: as §1
A culture of control cells was treated in the same manner as follows but the cultures contained no inhibitor. Cells were harvested as described above. Frozen cells were thawed at 4° C., and cold lysis buffer (1 mL of 50 mM Tris, pH 8.0 containing 150 mM NaCl, 1 mM EDTA, 1 mM PMSF, 1% NP-40, 0.5% sodium deoxycholate, and 1 mM of inhibitor 90) was added. After 10 minutes at 4° C. the solution was centrifuged at 14,000 rpm in an Eppendorf 5415C microcentrifuge and the supernatant was collected. SDS/PAGE loading buffer was added to an aliquot (15 μL) of each sample, and after heating at 96° C. aliquots were loaded onto 10% or 12% Tris-HCl polyacrylamide gels. After electrophoresis, the samples were electroblotted to nitrocellulose membrane (0.45 μm, Bio-Rad). Transfer was verified by visual inspection of the transfer of prestained markers (Dual Colour Precision Plus Protein Standard—Biorad). The membrane was blocked by using 5% BSA (fraction V, Sigma) in PBS (blocking buffer A for samples probed with mouse anti-O-GlcNAc monoclonal IgM antibody (MAb CTD 110.6—Covance)) or 5% low-fat dry powdered milk (blocking buffer B for samples probed with anti-β-actin), pH 7.4, containing 0.1% Tween 20 for 1 h at room temperature or overnight at 4° C. The blocking solution was decanted, and a solution of blocking buffer A containing MAb CTD 110.6 (1:2500 of the stock) or blocking buffer B containing mouse monoclonal anti-β-actin IgG (Clone AC-40—Sigma) was added (1:1000 dilution) as appropriate. The membrane was incubated at room temperature for 1 h or overnight at 4° C. after which the blocking buffer was decanted and the membrane was rinsed with PBS, pH 7.4, containing 0.1% Tween 20 (wash buffer). Membranes were then rinsed for 2×5 min and 3×15 min with wash buffer. For immunological detection of O-GlcNAc, the membrane was incubated in blocking buffer A for 1 hour at RT and, after washing, the membrane was incubated with a secondary goat anti-mouse-IgM-HRP-conjugate (1:2500, Santa Cruz Biotech) for one hour at RT or 4° C. overnight in blocking solution. For detection of β-actin levels, the membrane was incubated with a secondary goat anti-mouse-IgG-HRP conjugate (1:100000, Sigma) for one hour at RT or 4° C. overnight in blocking solution B. Membranes were washed and detection of membrane bound goat anti-mouse-IgG-HRP conjugate was accomplished by chemiluminescent detection using the SuperSignal West Pico Chemiluminescent Detection Kit (Pierce) and film (Kodak Biomax MR).

[4] = target: human placental β-hexosaminidase; experiment: Inhibition of β-hexosaminidase, substrate MU-GlcNAc (5), Dixon plots
[5] = Decomposition of STZ in D2O followed by NMR; conditions: room temperature
[6] = tested on: β-hexosaminidase; experiment: Time dependent inactivation of β-hexosaminidase by STZ; conditions: 10 mM STZ, pH 4.25, over six hours
[7] = target: O-GlcNAcase; conditions: read-out: IC50, O-GlcNAcase, previous determinations; cited from earlier work
[8] = target: T1, O-GlcNAcase; experiment: Time dependent inactivation of O-GlcNAcase by STZ

Compound	inhibition of O-GlcNAcase, in words [1]	proliferation rate or morphology compared to control cells [2]	cellular levels of O-GlcNAc-modified proteins compared to control [3]	Ki ([4]; read-out: KI, β-hexosaminidase, human lysosomal β-hexosaminidase)	Ki ([4]; read-out: β-Hexosaminidase KI, Table 2, substrate 5 at 0.64 mM, pH 4.25, Dixon plots)	half-life in aqueous solution (D2O) [5]	time dependent inactivation of β-hexosaminidase [6]	IC50 [7]	selectivity for O-GlcNAcase over β-hexosaminidase, in words [1]	selectivity ratio for O-GlcNAcase over β-hexosaminidase [1]	Selectivity Ratio (β-Hex KI/O-GlcNAcase KI) ([1]; Table 2)	Ki ([1]; read-out: KI, O-GlcNAcase, pH 6.5)	time dependent inactivation of O-GlcNAcase ([8]; 10 mM STZ, pH 6.5, over six hours)	expected ratio of reaction velocities VControl/VSTZ, O-GlcNAcase ([8]; calculated assuming competitive inhibition, KI=1.5 mM, 1.2 mM STZ in assay)	binding more tightly than GlcNAc, β-hexosaminidase [4]
CC(C)CC1=NC2C(OC(CO)C(O)C2O)S1 [Compound 9g, 1,2-dideoxy-2′-isobutyl-α-D-glucopyranoso-[2,1-d]-42′-triazoline D]	good inhibitors	no abnormalities in proliferation rate or morphology	Marked increases; also recorded: increase in cellular levels of O-GlcNAc-modified proteins												
CN(N=O)C(=O)N[C@H]1C(O)O[C@H](CO)[C@@H](O)[C@@H]1O (mixture of isomers) [STZ, streptozotocin]	poor inhibitor			47 mM	47 mM	greater than 6 hours	did not act as a time dependent inactivator; also recorded: does not show a time dependent inactivation	1 to 2.5 mM	moderate selectivity	31 fold	31	1.5 mM	did not act as a time dependent inactivator; also recorded: does not show a time dependent inactivation	1.17	
CC1=N[C@@H]2[C@@H](O)[C@H](O)[C@@H](CO)O[C@@H]2S1 [Compound 9a, 2′-methyl-α-D-glucopyrano-[2,1-d]-Δ2′-thiazoline, reference compound]		no abnormalities in proliferation rate or morphology	Marked increases; also recorded: increase in cellular levels of O-GlcNAc-modified proteins												17000 fold
